In US20230165979A1, “COPPER-CONTAINING THERAGNOSTIC COMPOSITIONS AND METHODS OF USE” (Cornell University, priority 2020, published 2023):

Columns and labels:
LNCaP tumors [1] = experiment: Published biodistribution of 177Lu-labeled comparison ligands in the same animal model; type: in vivo, mice; conditions: over 96 h p.i.; from previously determined values
Description: When tumor size reached approximately 200 mm^3, mice (n=4/time point) were administered 3.8±0.1 MBq [^64Cu]Cu-RPS-085 or 0.8±0.005 MBq [^67Cu]Cu-RPS-085 by intravenous injection. The total mass dose received by each animal was approximately 50 ng (31 pmol) and approximately 28 ng (17 pmol) for the [^64Cu]Cu-RPS-085 and [^67Cu]Cu-RPS-085 studies, respectively. The mice were sacrificed at 4 h, 24 h, or 48 h p.i. ([^64Cu]Cu-RPS-085) or 4 h, 24 h, and 96 h ([^67Cu]Cu-RPS-085). A blood sample was collected, and the following tissues were collected and weighed wet using a digital balance: heart, lungs, liver, stomach, small intestine, large intestine, spleen, pancreas, kidneys, muscle, bone, and tumor. The tissues were counted on a Wizard2 Automatic Gamma Counter (Perkin Elmer, USA) against a 1% injected dose standard. The counts were corrected for decay and for activity injected, and tissue uptake was expressed as percent injected dose per gram (% ID/g). Standard error of the mean (SEM) was calculated for each data point. Statistical analyses were performed using an unpaired t test with GraphPad Prism software. A P value of less than 0.05 was considered significant. […] Published values for [177Lu]Lu-RPS-063 are shown for comparison; all concentrations are expressed as percent injected dose per organ.

LNCaP tumors [2] = conditions: over 96 h p.i.; same animal model; previously determined; cited from earlier work

Ãtumor/Ãkidney ratio (LNCaP tumors [1]): 2.1
Substance: [^177Lu]Lu-PSMA-617
accumulated activity (Ã) in LNCaP tumors (LNCaP tumors [2]): 544 (% ID/g)·h | accumulated activity (Ã) in kidneys (LNCaP tumors [2]): 260 (% ID/g)·h
